Data on eight compounds can be found in ChEMBL document CHEMBL3393053, “Synthesis and biological evaluation of isoindoloisoquinolinone, pyroloisoquinolinone and benzoquinazolinone derivatives as poly(ADP-ribose) polymerase-1 inhibitors” (Bioorg Med Chem, 2015).

Data set [1] is described as follows: Antioxidant activity against H2O2-induced oxidative stress in chicken RBC assessed as superoxide dismutase activity by measuring pyrogallol oxidization per mg protein pre-incubated at 75 uM followed by H2O2 addition by UV spectroscopy (reference value: 11.32 +/- 1.96 pyrogallol oxidized/min/mg of protein). The format is functional, Gallus gallus, Erythrocyte.

Data set [2] concerns Erythrocyte. The experiment in a line: Cytoprotective activity against H2O2-induced genomic DNA damage in chicken RBC assessed as DNA level in comet head region pre-incubated at 100 uM followed by H2O2 addition by single cell alkaline gel electrophoresis and fluorescent microscopy based comet assay (reference value: 52.23 +/- 3.98%). The format is functional, Gallus gallus.

Data set [3] in a line: Antioxidant activity against H2O2-induced oxidative stress in chicken RBC assessed as superoxide dismutase activity by measuring pyrogallol oxidization per mg protein pre-incubated at 50 uM followed by H2O2 addition by UV spectroscopy (reference value: 11.32 +/- 1.96 pyrogallol oxidized/min/mg of protein). The format is functional, Gallus gallus, Erythrocyte.
Data set [4] in a line: Antioxidant activity against H2O2-induced oxidative stress in chicken RBC assessed as lipid peroxidation level by measuring malondialdehyde formation per mg protein pre-incubated at 50 uM followed by H2O2 addition by UV spectroscopy (reference value: 84.32 +/- 12.04 nmol malondialdehyde formed/mg protein). Format: functional, Gallus gallus, Erythrocyte.
Data set [5] can be described thus: Antioxidant activity against H2O2-induced oxidative stress in chicken RBC assessed as lipid peroxidation level by measuring malondialdehyde formation per mg protein pre-incubated at 100 uM followed by H2O2 addition by UV spectroscopy (reference value: 84.32 +/- 12.04 nmol malondialdehyde formed/mg protein). The format is functional, Gallus gallus, Erythrocyte.

Data set [6] is described as follows: Antioxidant activity against H2O2-induced oxidative stress in chicken RBC assessed as superoxide dismutase activity by measuring pyrogallol oxidization per mg protein pre-incubated at 25 uM followed by H2O2 addition by UV spectroscopy (reference value: 11.32 +/- 1.96 pyrogallol oxidized/min/mg of protein). Format: functional, Gallus gallus, Erythrocyte.
Data set [7] in a line: Toxicity against chicken RBC assessed as effect on cell viability at 25 to 100 uM by acridine orange and ethidium bromide staining method. The settings on record: erythrocyte. Format: cell-based, Gallus gallus.
Data set [8] in a line: Cytoprotective activity against H2O2-induced cytotoxicity in chicken RBC assessed as cell viability pre-incubated at 100 uM followed by H2O2 addition by acridine orange and ethidium bromide staining method (reference value: 41 +/- 2.08%). Format: functional. The settings on record: Gallus gallus, Erythrocyte; read-out: Activity.
The nature of data set [9]: Antioxidant activity against H2O2-induced oxidative stress in chicken RBC assessed as catalase activity by measuring H2O2 utilization per mg protein pre-incubated at 75 uM followed by H2O2 addition by UV spectroscopy (reference value: 15.97 +/- 2.12 nmol of H2O2 utilized/min/mg of protein). Format: functional, Gallus gallus, Erythrocyte.
Data set [10] is described as follows: Antioxidant activity against H2O2-induced oxidative stress in chicken RBC assessed as catalase activity by measuring H2O2 utilization per mg protein pre-incubated at 25 uM followed by H2O2 addition by UV spectroscopy (reference value: 15.97 +/- 2.12 nmol of H2O2 utilized/min/mg of protein). Format: functional, Gallus gallus, Erythrocyte.
The test system of data set [11] is Erythrocyte. The experiment in a line: Cytoprotective activity against H2O2-induced genomic DNA damage in chicken RBC assessed as DNA level in comet tail region pre-incubated at 100 uM followed by H2O2 addition by single cell alkaline gel electrophoresis and fluorescent microscopy based comet assay (reference value: 45.78 +/- 3.24%). The format is functional, Gallus gallus.

Data set [12] is described as follows: Antioxidant activity against H2O2-induced oxidative stress in chicken RBC assessed as lipid peroxidation level by measuring malondialdehyde formation per mg protein pre-incubated at 25 uM followed by H2O2 addition by UV spectroscopy (reference value: 84.32 +/- 12.04 nmol malondialdehyde formed/mg protein). The format is functional, Gallus gallus, Erythrocyte.

The nature of data set [13]: Antioxidant activity against H2O2-induced oxidative stress in chicken RBC assessed as lipid peroxidation level by measuring malondialdehyde formation per mg protein pre-incubated at 75 uM followed by H2O2 addition by UV spectroscopy (reference value: 84.32 +/- 12.04 nmol malondialdehyde formed/mg protein). The format is functional, Gallus gallus, Erythrocyte.
Data set [14] is described as follows: Antioxidant activity against H2O2-induced oxidative stress in chicken RBC assessed as superoxide dismutase activity by measuring pyrogallol oxidization per mg protein pre-incubated at 100 uM followed by H2O2 addition by UV spectroscopy (reference value: 11.32 +/- 1.96 pyrogallol oxidized/min/mg of protein). Format: functional, Gallus gallus, Erythrocyte.
Data set [15] is described as follows: Antioxidant activity against H2O2-induced oxidative stress in chicken RBC assessed as catalase activity by measuring H2O2 utilization per mg protein pre-incubated at 100 uM followed by H2O2 addition by UV spectroscopy (reference value: 15.97 +/- 2.12 nmol of H2O2 utilized/min/mg of protein). Format: functional, Gallus gallus, Erythrocyte.
The nature of data set [16]: Antioxidant activity against H2O2-induced oxidative stress in chicken RBC assessed as catalase activity by measuring H2O2 utilization per mg protein pre-incubated at 50 uM followed by H2O2 addition by UV spectroscopy (reference value: 15.97 +/- 2.12 nmol of H2O2 utilized/min/mg of protein). The format is functional, Gallus gallus, Erythrocyte.

Regarding `Cc1ccc2c(c1)CCN1C(=O)c3ccccc3C21O` (stereo not drawn), the Activity in data set [1] turned out to be 15.08 µmol/min; in the data set with Erythrocyte [2], 87.56%; in [3], 14.56 µmol/min; in [4], 43.76 nmol/mg protein; in data set [5], 16.95 nmol/mg protein; in data set [6] it was 11.51 µmol/min. The Activity result is recorded as “Non-toxic” in data set [7]; 54.56 nmol/min/mg in data set [9]; 31.71 nmol/min/mg in data set [10]; 11.44% in the data set on Erythrocyte [11]; 53.66 nmol/mg protein in data set [12]; 26.52 nmol/mg protein in [13]. The figures for the Activity in [14], in [15] and in data set [16] were 18.6 µmol/min, 65.35 nmol/min/mg protein and 50.35 nmol/min/mg, respectively. The viability at 100 µM in data set [8] is 82.3%.

As for `COc1ccc2c(c1)CCN1C(=O)c3ccccc3C21O` (stereo not drawn), the Activity is 11.48 µmol/min in data set [1]; 57.29% in the data set with Erythrocyte [2]; 11.87 µmol/min in data set [3]; 56.32 nmol/mg protein in data set [4]; 42.14 nmol/mg protein in [5]; 12.65 µmol/min in [6]. Moreover, the Activity entry is reported as “Non-toxic” in data set [7]; 16.46 nmol/min/mg in data set [9]; 15.31 nmol/min/mg in data set [10]; 41.96% with Erythrocyte [11]; 62.98 nmol/mg protein in data set [12]; 48.12 nmol/mg protein in data set [13]. The Activity was determined as 11.37 µmol/min in [14], 16.37 nmol/min/mg protein in data set [15] and 16.25 nmol/min/mg in [16]. Further, in data set [8], the viability at 100 µM came out at 53.6%.

On to `COc1cc2c(cc1OC)C1(O)C3C4c5ccccc5C(c5ccccc54)C3C(=O)N1CC2` (stereo not drawn), for which the Activity amounted to 23.58 µmol/min in data set [1]; 82.45% in the data set with Erythrocyte [2]; 19.63 µmol/min in data set [3]; 35.6 nmol/mg protein in [4]; 18.1 nmol/mg protein in [5]; 15.86 µmol/min in data set [6]. Further, the Activity result in [7] was “Non-toxic”; in data set [9], 65.12 nmol/min/mg; in data set [10], 46.11 nmol/min/mg; with Erythrocyte [11], 16.55%; in data set [12] it was 51.48 nmol/mg protein; in data set [13], 24.44 nmol/mg protein. Moreover, the results for the Activity in data set [14], in data set [15] and in data set [16] were 27.87 µmol/min, 67.91 nmol/min/mg protein and 55.89 nmol/min/mg, respectively. Further, the viability at 100 µM in data set [8] amounted to 87.3%.

Consider `COc1cc2c(cc1O)C1(O)c3ccccc3C(=O)N1CC2` (stereo not drawn), for which the Activity was found to be 28.863 µmol/min in [1]; 92.3% with Erythrocyte [2]; 21.63 µmol/min in [3]; 47.15 nmol/mg protein in [4]; 15.02 nmol/mg protein in [5]; 18.616 µmol/min in data set [6]. In addition, the Activity entry is reported as “Non-toxic” in data set [7]; 62.57 nmol/min/mg in [9]; 29.52 nmol/min/mg in [10]; 7.34% in the data set with Erythrocyte [11]; 52.71 nmol/mg protein in data set [12]; 26.35 nmol/mg protein in [13]. Also, the Activity in data set [14] stood at 30.94 µmol/min; in [15] it was 70.66 nmol/min/mg protein; in data set [16] it was 51.49 nmol/min/mg. The viability at 100 µM in [8] was determined as 93.6%.

`COc1cc2c(c(OC)c1)C1CCC(=O)N1CC2` (stereo not drawn): the Activity in data set [1] was found to be 24.35 µmol/min; in the data set with Erythrocyte [2], 54.2%; in data set [3], 19.43 µmol/min; in [4], 19.12 nmol/mg protein; in data set [5], 16.14 nmol/mg protein; in data set [6] it was 17.23 µmol/min. Besides, the Activity entry in data set [7] is recorded as “Non-toxic”; in [9], 58.28 nmol/min/mg; in [10], 38.65 nmol/min/mg; in the data set with Erythrocyte [11], 45.8%; in data set [12], 28.38 nmol/mg protein; in data set [13], 16.87 nmol/mg protein. Moreover, the Activity in data set [14] was 29.34 µmol/min; in data set [15] it was 70.43 nmol/min/mg protein; in data set [16], 46.35 nmol/min/mg. Further, the viability at 100 µM in [8] amounted to 68.3%.

Consider `COc1ccc2c(c1OC)CCN1C(=O)CCCC21` (stereo not drawn), for which the Activity was found to be 11.95 µmol/min in data set [1]; 73.84% in the data set with Erythrocyte [2]; 11.48 µmol/min in data set [3]; 54.23 nmol/mg protein in data set [4]; 49.54 nmol/mg protein in data set [5]; 11.76 µmol/min in data set [6]. For the same compound, the Activity entry is recorded as “Non-toxic” in [7]; 28.47 nmol/min/mg in data set [9]; 17.36 nmol/min/mg in data set [10]; 9.75% in the data set with Erythrocyte [11]; 61.45 nmol/mg protein in data set [12]; 48.23 nmol/mg protein in data set [13]. Moreover, the Activity in [14] worked out at 12.98 µmol/min; in data set [15] it was 31.43 nmol/min/mg protein; in data set [16], 25.95 nmol/min/mg. Further, the viability at 100 µM in data set [8] stood at 86.6%.

For the compound `COc1cc2c(cc1OC)C1(O)c3ccccc3C(=O)N1CC2` (stereo not drawn), the Activity is 23.98 µmol/min in data set [1]; 65.56% with Erythrocyte [2]; 19.35 µmol/min in data set [3]; 29.27 nmol/mg protein in data set [4]; 18.32 nmol/mg protein in [5]; 17.34 µmol/min in data set [6]. The Activity entry in data set [7] is listed as “Non-toxic”; in data set [9] it was 48.43 nmol/min/mg; in [10], 26.54 nmol/min/mg; in the data set with Erythrocyte [11], 34.44%; in data set [12], 38.46 nmol/mg protein; in data set [13], 16.54 nmol/mg protein. The Activity was 28.45 µmol/min in data set [14], 64.87 nmol/min/mg protein in [15] and 43.65 nmol/min/mg in [16]. In addition, in data set [8], the viability at 100 µM turned out to be 79.3%.

`COc1ccc(OC)c2c1CCN1C(=O)c3ccccc3C21O` (stereo not drawn): the Activity is 23.76 µmol/min in [1]; 90.45% with Erythrocyte [2]; 19.24 µmol/min in [3]; 28.21 nmol/mg protein in data set [4]; 20.14 nmol/mg protein in [5]; 16.32 µmol/min in data set [6]. The Activity entry in data set [7] was “Non-toxic”; in [9] it was 47.53 nmol/min/mg; in [10] it was 23.65 nmol/min/mg; in the data set on Erythrocyte [11] it was 8.55%; in data set [12], 36.23 nmol/mg protein; in data set [13], 14.24 nmol/mg protein. The results for the Activity in [14], in data set [15] and in data set [16] were 27.76 µmol/min, 68.46 nmol/min/mg protein and 31.76 nmol/min/mg, respectively. Also, the viability at 100 µM in data set [8] is 72%.
